From patent publication EP1222180B1, “ENANTIOMERIC COMPOUNDS FOR TREATMENT OF CARDIAC ARRHYTHMIAS AND METHODS OF USE” (ARYx Therapeutics, priority 1999, dated 2001) come the findings set out here.

The test system of one data set is anesthetized rats. Put plainly: Anti-arrhythmic activity in anesthetized rats (benzene/adrenaline challenge, EKG recording). Particulars: for protection against tachyarrhythmia (heart rate increase after adrenaline): administered from time 0 to time 120 minutes, Figure 3; for Heart rate (beats/minute) / Inhibition of VPB / Inhibition of tachycardia / Number of VPB / PR interval / QRS interval / QT interval: isolated enantiomer compared to the racemate, 4 mg/kg i.v. then 12 mg/kg/h for 2 hours; for inhibition of the formation of ventricular premature beats (VPB): period of drug administration (time 0 to 120 min); for anti-VPB activity at the end of the washout period: time 180 min. Type of data set: in vivo, Male Sprague-Dawley rats. The procedure:
Male Sprague-Dawley rats with body weights of 410 ± 30 g (Harlan Sprague Dawley Inc., Indianapolis, IN), were anesthetized with sodium pentobarbital (50 mg/kg i.p. - Butler Co., Columbus, OH). The skin from the neck area was removed and the jugular veins on both sides were cleared of connective tissue. Both jugular veins and the left carotid artery were isolated, and the latter tied up cranially with a surgical silk (ETHICON 4-0, Ethicon Inc., Australia). A plastic catheter ([…] 19ga, Vecton Dickinson, Sandy, UT), filled with a solution containing 10% sodium heparin (Elkins-Sinn Inc., Cherry Hill, NJ) in normal saline (100 U/ml sodium heparin), was introduced into the artery and fixed with surgical silk.
The catheter was connected to a pressure transducer (OHMEDA P23-XL, Ohmeda Medical Devices Division Inc., Madison, WI), filled with the same heparinized 0.9% NaCl solution, to register beat-to-beat arterial pressure. Needle electrodes were inserted s.c., and together with the pressure transducer, were joined to a GOULD TA 2000 recorder. Leads II, aVF and intraarterial blood pressure were monitored simultaneously throughout the experiments and recorded at certain intervals at 50 and 200 mm/sec paper speed.
The surgery was completed with an incision on the trachea where a short plastic tubing was placed and the animal was connected to a rodent-model ventilator (HARVARD Model 683, Harvard Apparatus, Inc., Holliston, MA). The animals were ventilated in a controlled way, depending on their spontaneous breathing frequency (55-75/min).
Drug administrations were carried out through i.v. catheters (TERUMO 24 GA*3/4", Terumo Medical Corp., Elkton, MD) inserted into both jugular veins. The left side was used for drug infusions by means of a syringe pump (SAGE INSTRUMENTS, Model 341B, Orion Res. Inc., Boston, MA), and the right side was used for adrenaline injections. The experiments were started after at least 15 minutes of stabilization. Benzene/adrenaline challenges were performed as follows: the respirator inlet was connected to a 50-ml bubbler half-full with benzene (Fisher Scientific, Fair Lawn, NJ) so that the inspired air was saturated with benzene vapor. The animal was ventilated with benzene vapor for two minutes. The tidal volume was typically 1 ml/100g of animal. During the last 30 seconds of benzene ventilation, 10 µg/kg adrenaline solution (in 0.9% NaCl) was injected into the right jugular vein. […] These arrhythmias could be elicited repeatedly. After three control VTs (at -30, -20 and -10 minutes), the test compounds were injected slowly during 30 seconds at a dose of 4 mg/kg i.v., immediately followed by a slow infusion of 12 mg/kg/h for 2 hours. The flow rate during the infusion period was 1 ml/h.
There were 5 rats per test compound and each animal served as its own control. The ability of the different drugs to suppress arrhythmias was tested against repeated benzene/adrenaline challenges at 5, 15, 30, 45, 60, 90, 120 (end of drug infusion), 135, 150, 165 and 180 minutes after the i.v. bolus injection. The amplitudes of the systolic arterial pressure and diastolic arterial pressure […] with the help of a pressure-amplitude calibration curve. Heart rate, number of ventricular complexes during the occurrence of VTs and VPBs, and certain ECG parameters (PR, QRS, QT durations and RR cycle lengths in msec) were also recorded and measured manually. At each time-point, 3-5 cycles were measured and the average values were entered into EXCEL Windows 97. The average and standard deviation for the five experimental animals per compound were calculated.

Data set [1] is classed as in vitro ADME. Particulars: human; for hydrolysis half-life: plasma. The method, then:
Venous blood (60 ml) was collected in heparinized 15-ml Vacutainer® tubes from the forearm of five human volunteers. Each tube contained 1,000 units of heparin sodium salt. The blood was immediately centrifuged at 2,000 g for 10 minutes and the plasma was collected. Immediately after collection, the plasma was divided into 2-ml aliquots in borosilicate glass tubes (5-ml capacity) capped with a plastic stopper. The tubes were then equilibrated in a 37°C-water bath for at least 15 minutes before the test samples were added. Stock solutions were prepared by dissolving 25 µmoles (about 18 mg) of each of the test compounds in 10 ml of deionized water. To each of the glass tubes containing 2 ml of fresh plasma, equilibrated at 37°C, was added 40 µl of the stock solutions (one test compound per tube). The plasma/stock solutions were then mixed. Samples (250 µl) were collected at time 0 (immediately after mixing test compounds in plasma) and then at 30, 60, 90, 120, 180, 240, and 300 minutes. The test tubes were capped, to avoid concentration due to evaporation, and left in the 37°C bath during the entire experiment. […] The tubes were then capped and vortexed, then kept at -20°C until analysis. […] The supernatant was collected for injection in the HPLC system. […] The detection wavelength was set at 242 nm, and the injected volume was 100 µL. The HPLC peaks were recorded, and the integrated values were plotted against time using the SIGMAPLOT software version 4.0 for WINDOWS. The resulting curves were fitted to a first-order exponential decay equation from which hydrolysis half-lives were calculated.

[2] abbreviates: benzene vapors and adrenaline challenge, Figure 2.

Each structure is given as a SMILES string.

For `CC[C@H](C)OC(=O)Cc1oc2ccccc2c1C(=O)c1cc(I)c(OCCN(CC)CC)c(I)c1` [S-2042, (S)-sec-Butyl 2-[3-(3,5-diiodo-4-(2-diethylaminoethyloxy)benzoyl)]benzofurane-acetate], in the data set on anesthetized rats (Figure 4), the “effects on the QT segment of the EKG recording (Class-III properties)” value is “the most potent and the longest acting”. In addition, the “effects on the PR segment of the EKG recording (Class-IV activity)” value in the data set on anesthetized rats (Figure 6) is “much more potent than R-2042 and the racemate R,S-2042”. For the same compound, in the data set with anesthetized rats, the “protection against tachyarrhythmia (heart rate increase after adrenaline)” value is “more potent and longer acting then R-2042”; the “Heart rate (beats/minute)” value was “lower”; the “Inhibition of VPB” value is recorded as “longer”; the Inhibition of tachycardia result was “longer”. Besides, in the data set with anesthetized rats, the “Number of VPB” value was “lower”, the PR interval result was “longer”, the QRS interval entry is “longer” and the QT interval result is reported as “longer”. Moreover, in the data set with anesthetized rats (setting [2]), the “inhibition of the formation of ventricular premature beats (VPB)” value was “totally inhibited the formation of ventricular premature beats for the whole period of drug administration” and the “anti-VPB activity at the end of the washout period” value is listed as “still retained part of its activity”. In data set [1], the Plasma half-life stood at 7.3 h and the hydrolysis half-life was 7.3 h.
Turning to `CC[C@@H](C)OC(=O)Cc1oc2ccccc2c1C(=O)c1cc(I)c(OCCN(CC)CC)c(I)c1` [R-2042, (R)-sec-Butyl 2-[3-(3,5-diiodo-4-(2-diethylaminoethyloxy)benzoyl)]benzofurane-acetate], in the data set with anesthetized rats (setting [2]), the “time at which anti-VPB activity is lost” value is reported as about 100 min and the “anti-VPB activity at the end of the washout period” value is “completely inactive”. In the data set with anesthetized rats, the “Heart rate (beats/minute)” value is “lower”, the “Inhibition of VPB” value is “longer”, the Inhibition of tachycardia entry is “longer” and the “Number of VPB” value is recorded as “lower”. In the data set on anesthetized rats, the PR interval entry is reported as “shorter”, the QRS interval result was “no change” and the QT interval result is “no change”. In data set [1], this compound gave a Plasma half-life of 5.0 h and a hydrolysis half-life of 5 h.
On to `CC[C@H](C)OC(=O)Cc1oc2ccccc2c1C(=O)c1cc(I)c(OCCN(CC)CC)c(I)c1` [R,S-2042], for which the “protection against tachyarrhythmia (heart rate increase after adrenaline)” value in the data set with anesthetized rats is “the least potent and shortest acting”. The “inhibition of the formation of ventricular premature beats (VPB)” value in the data set with anesthetized rats (setting [2]) is given as “even less active than either the R- or the S-isomer”.
As to `CC[C@H](C)OC(=O)Cc1oc2ccccc2c1C(=O)c1cc(I)c(OCCN(CC)CC)c(I)c1` [ATI-2042], the “protection against tachyarrhythmia (heart rate increase after adrenaline)” value in the data set on anesthetized rats is on record as “very good protection against this tachyarrhythmia”.
